Tested on: intestinal fat absorption
Assay: Intestinal fat absorption reduction determination (gravimetric fecal fat content) in dogs
Type: in vivo
Settings: male beagles, oral gavage, dosing solution 0.5 mg/mL, 1 mL per kg body weight, single daily dose on Days 0 and 5-12; fecal fat determined gravimetrically
Excerpt: Healthy, young adult (1-2 years of age) male beagles (Marshall Farms, North Rose, New York, NY 14516) weighing 11.45 - 12.45 kg at the start of the treatment period were employed as test subjects. The animals were housed individually in standard caging meeting or exceeding the USDA regulations (U.S. Department of Agriculture, Animal Welfare, Final Rules. 9 C.F.R. Parts 1-3, 1995).
The test compound was provided as a water-soluble powder. The dosing solution, administered by oral gavage, was provided employing a 0.025 M citrate buffer (approx. pH = 3) prepared using anyhdrous citric acid (0.4 g/mL) and anhydrous sodium citrate (0.1 g/mL) as the test vehicle. The dosing solution was prepared at 0.5 mg/mL activity so that 1 mL was delivered per kg body weight. Following a fourteen day acclimation period (designated as Days -14 to -1), during which time the test animals were evaluated for certain criteria including determination of body weight, physical examinations, and initial fecal specimen collection, a sixteen day evaluation study was effected. […]
Fecal specimens were collected daily over approximately 24 hours (±1 hr) prestudy and then beginning on Day -2 and terminating on Day 16. The fecal specimens so collected were weighed (total grams of bulk feces) frozen, stored at -26°C to -20°C and then analyzed for fecal fat content. […]

| Structure (SMILES) | reduced intestinal fat absorption in dogs [%] |
| --- | --- |
| CCCCN1CCc2cc(NC(=O)c3ccccc3-c3ccc(C(F)(F)F)cc3)ccc2C1 [4'-trifluoromethyl-biphenyl-2-carboxylic acid-(2-butyl-1,2,3,4-tetrahydroisoquinolin-6-yl)-amide] | 26 |
| CC(=O)NCCN1CCc2cc(NC(=O)c3ccccc3-c3ccc(C(F)(F)F)cc3)ccc2C1 [4'-trifluoromethyl-biphenyl-2-carboxylic acid-[2-(2-acetylaminoethyl)-1,2,3,4-tetrahydroisoquinolin-6-yl amide] | 49 |

From EP1099439A2, “Use of apo B secretion/MTP inhibitors” (Pfizer Products Inc., priority 1999, dated 2001)
